Experiments:
Assay type in all cases: cell-based
[1] = system: MCF7 (human breast adenocarcinoma); experiment: MTT assay, MCF7; settings: Homo sapiens, MTT; for cytotoxicity at 100 µg/mL: at 100 μg ml^−1, 48 hours
Method: (§1) The percentage of the cell viability treated with the newly synthesized compounds was evaluated using MTT assay (3-(4,5-dimethylthiazol-2-yl)-2,5-diphenyl tetrazolium bromide). All the subsequent steps were done in a sterile Laminar flow class II biosafety cabinet (Baker, SG406INT, Sanford, ME, USA). DMEM was used as a suspension medium for breast cancer (MCF7), prostate cancer (PC3), and pancreatic cancer (PACA2), while normal cell line (BJ1) was suspended in DMEM-F12 medium, a 1% antibiotic-antimycotic mixture (10 000 U ml^−1 potassium penicillin, 10 000 μg ml^−1 streptomycin sulfate, and 25 μg ml^−1 amphotericin B), and 1% L-glutamine at 37 °C under 5% CO2.
(§2) Cells were cultured for 10 days and then seeded at a concentration of 10 × 10^4 cells per well in fresh complete growth medium in 96-well microtiter plastic plates at 37 °C for 24 hours under 5% CO2 using a water-jacketed carbon dioxide incubator (Sheldon, TC2323). Media were aspirated, serum-free fresh medium was added, and cells were incubated either alone (negative control) or with different concentrations of the synthesized chalcone derivatives to a final concentration of (100–50–25–12.5–6.25–3.125–0.78 and 1.56 μg ml^−1). After incubation for 48 hours, the medium was aspirated and 40 μl of MTT salt ([…]) was added to each well and incubated for another four hours at 37 °C under 5% CO2. To stop the reaction and dissolve the formed crystals, 200 μl of 10% sodium dodecyl sulfate (SDS) in deionized water was added to each well and incubated overnight at 37 °C.
(§3) The absorbance was then measured at 595 nm and a reference wavelength of 620 nm using a microplate multi-well reader (Bio-Rad Laboratories Inc., model 3350). Statistical significance was tested between the samples and the negative control (cells with vehicle) using an independent t-test using the SPSS 11 program. DMSO was the vehicle used for the dissolution of the synthesized chalcones, and its final concentration on the cells was less than 0.2%. The percentage of change in viability was calculated according to the formula: ((reading of extract/reading of negative control) − 1) × 100. A Probit analysis was carried out for the determination of IC50 using the SPSS 11 program.

[2] = system: PACA2 (pancreatic carcinoma); experiment: MTT assay, PACA2; settings: Homo sapiens, PaCa-2, 48 h, MTT, read-out: (%) Mortality of PACA2; for cytotoxicity at 100 µg/mL: at 100 μg ml^−1, 48 hours
Method: as §1, §2, §3

PC3 (prostatic cancer) = experiment: MTT assay, PC3; settings: Homo sapiens, 48 h, MTT, read-out: (%) Mortality of PC3; for cytotoxicity at 100 µg/mL: at 100 μg ml^−1, 48 hours
Method: as §1, §2, §3

[3] = MTT assay, normal cell line BJ1; settings: human, BJ1 normal skin fibroblasts, at 100 μg ml^−1, 48 hours, read-out: (%) Mortality of BJ1
Method: as §1, §2, §3

[4] = system: BJ1 (normal skin fibroblasts); experiment: MTT assay, normal cell line BJ1; settings: Skin fibroblast, 48 hours
Method: as §1, §2, §3

[5] = MCF7, 48 h, read-out: (%) Mortality of MCF7

Structure (SMILES): COc1ccc(-c2cn(-c3ccccc3)nc2C=CC(=O)c2c(-c3cccs3)nn(-c3ccc([N+](=O)[O-])cc3)c2C)cc1 [Compound 9c, 3-(4-(4-Methoxyphenyl)-1-phenyl-1H-pyrazol-3-yl)-1-(5-methyl-1-(4-nitrophenyl)-3-(thiophen-2-yl)-1H-pyrazol-4-yl)prop-2-en-1-one]
- cytotoxicity at 100 µg/mL [1, 5]: 25.2 ± 0.41%
- cytotoxicity at 100 µg/mL [2]: 19.8 ± 0.68%
- cytotoxicity at 100 µg/mL (PC3 (prostatic cancer)): 2.9 ± 0.57%

Structure (SMILES): Cc1c(C(=O)C=Cc2ccco2)c(-c2cccs2)nn1-c1ccc([N+](=O)[O-])cc1 [Compound 7a, 3-(Furan-2-yl)-1-(5-methyl-1-(4-nitrophenyl)-3-(thiophen-2-yl)-1H-pyrazol-4-yl)prop-2-en-1-one]
- cytotoxicity at 48 h, 100 μg ml^−1 [3]: 11.2 ± 0.48%
- cytotoxicity at 100 µg/mL [1, 5]: 63.5 ± 0.11%
- IC50 ([1]; MCF7, 48 hours): 72.3 ± 0.34 µM
- cytotoxicity at 100 µg/mL [2]: 17.3 ± 0.13%
- cytotoxicity at 100 µg/mL (PC3 (prostatic cancer)): 3.8 ± 0.65%

Structure (SMILES): Cc1c(C(=O)C=Cc2ccncc2)c(-c2cccs2)nn1-c1ccc([N+](=O)[O-])cc1 [Compound 7c, 1-(5-Methyl-1-(4-nitrophenyl)-3-(thiophen-2-yl)-1H-pyrazol-4-yl)-3-(pyridin-4-yl)prop-2-en-1-one]
- IC50 [4]: 86.2 ± 0.22 µM
- cytotoxicity at 48 h, 100 μg ml^−1 [3]: 52.3 ± 0.76%
- cytotoxicity at 6.25 µg/mL ([1]; MCF7, 48 h, up to 6.25 μg ml^−1, 48 hours, read-out: (%) Mortality of MCF7): 100%
- cytotoxicity at 6.25 µg/mL ([2]; up to 6.25 μg ml^−1, 48 hours): 100%
- cytotoxicity at 6.25 µg/mL (PC3 (prostatic cancer); up to 6.25 μg ml^−1, 48 hours): 100%

Structure (SMILES): Cc1ccc(-c2cn(-c3ccccc3)nc2C=CC(=O)c2c(-c3cccs3)nn(-c3ccc([N+](=O)[O-])cc3)c2C)cc1 [Compound 9b, 1-(5-Methyl-1-(4-nitrophenyl)-3-(thiophen-2-yl)-1H-pyrazol-4-yl)-3-(1-phenyl-4-(p-tolyl)-1H-pyrazol-3-yl)prop-2-en-1-one]
- cytotoxicity at 100 µg/mL [1, 5]: 44.5 ± 0.74%
- cytotoxicity at 100 µg/mL [2]: 39.5 ± 0.91%
- cytotoxicity at 100 µg/mL (PC3 (prostatic cancer)): 27.2 ± 0.31%

Structure (SMILES): Cc1c(C(=O)C=Cc2nn(-c3ccccc3)cc2-c2cccs2)c(-c2cccs2)nn1-c1ccc([N+](=O)[O-])cc1 [Compound 9f, 1-(5-Methyl-1-(4-nitrophenyl)-3-(thiophen-2-yl)-1H-pyrazol-4-yl)-3-(1-phenyl-4-(thiophen-2-yl)-1H-pyrazol-3-yl)prop-2-en-1-one]
- cytotoxicity at 100 µg/mL [1, 5]: 80.4 ± 0.25%
- cytotoxicity at 100 µg/mL [2]: 16.5 ± 0.35%
- cytotoxicity at 100 µg/mL (PC3 (prostatic cancer)): 4.5 ± 0.23%

Structure (SMILES): Cc1c(C(=O)C=Cc2nn(-c3ccccc3)cc2-c2ccccc2)c(-c2cccs2)nn1-c1ccc([N+](=O)[O-])cc1 [Compound 9a, 3-(1,4-Diphenyl-1H-pyrazol-3-yl)-1-(5-methyl-1-(4-nitrophenyl)-3-(thiophen-2-yl)-1H-pyrazol-4-yl)prop-2-en-1-one]
- cytotoxicity at 100 µg/mL [1, 5]: 42.3 ± 0.21%
- cytotoxicity at 100 µg/mL [2]: 50.3 ± 0.42%
- cytotoxicity at 100 µg/mL (PC3 (prostatic cancer)): 4.5 ± 0.26%

Structure (SMILES): Cc1c(C(=O)C=Cc2cccs2)c(-c2cccs2)nn1-c1ccc([N+](=O)[O-])cc1 [Compound 7b, 1-(5-Methyl-1-(4-nitrophenyl)-3-(thiophen-2-yl)-1H-pyrazol-4-yl)-3-(thiophen-2-yl)prop-2-en-1-one]
- cytotoxicity at 100 µg/mL [1, 5]: 45.3 ± 0.98%
- cytotoxicity at 100 µg/mL [2]: 32.5 ± 0.74%
- cytotoxicity at 100 µg/mL (PC3 (prostatic cancer)): 4.2 ± 0.73%

Structure (SMILES): Cc1c(C(=O)C=Cc2nn(-c3ccccc3)cc2-c2ccc(Cl)cc2)c(-c2cccs2)nn1-c1ccc([N+](=O)[O-])cc1 [Compound 9d, 3-(4-(4-Chlorophenyl)-1-phenyl-1H-pyrazol-3-yl)-1-(5-methyl-1-(4-nitrophenyl)-3-(thiophen-2-yl)-1H-pyrazol-4-yl)prop-2-en-1-one]
- cytotoxicity at 100 µg/mL [1, 5]: 44.2 ± 0.33%
- cytotoxicity at 100 µg/mL [2]: 54.5 ± 0.84%
- cytotoxicity at 100 µg/mL (PC3 (prostatic cancer)): 3.5 ± 0.92%
